Source: PMC9820303, “^αN-Acetyl β-Endorphin Is an Endogenous Ligand of σ1Rs That Regulates Mu-Opioid Receptor Signaling by Exchanging G Proteins for σ2Rs in σ1R Oligomers” (International Journal of Molecular Sciences, 2022)

Legend:
[1] = system: pMCAO in CD1 mice (wild-type and σ1R−/−); assay: Permanent unilateral middle cerebral artery occlusion (pMCAO), infarct size by TTC staining; format: in vivo, mouse
Method: Figure 1 ^αN-acetyl β-End 1–31 reduced ischemic brain damage and diminished seizures induced by NMDAR overactivation. Implication of σ1Rs. (A) ^αN-acetyl β-End 1–31 administration diminished ischemic brain damage in wild-type but not σ1R^−/− mice. Upper panel: representative 2,3,5-triphenyltetrazolium chloride (TTC)-stained brain section images obtained from saline- and drug-treated mice (3 nmol, 1 h after surgery) 48 h after pMCAO. White indicates infarction; red staining indicates normal tissue. Lower panel: the bar graphs quantitatively compare the infarct volume based on TTC staining from wild-type mice treated with saline, β-End 1–31 and the σ1R agonist PRE084 (white bars). The reducing effect of ^αN-acetyl β-End 1–31 was counteracted by β-End 1–31 and PRE084 (gray bars). In σ1R^−/− mice, the positive effect of ^αN-acetyl β-End 1–31 was not observed. […] Effects of PPCC, β-End 1–31 and ^αN-acetyl β-End 1–31 on seizures induced by NMDA in wild-type and σ1R^−/− mice. The mice received icv 1 nmol of the NMDAR agonist NMDA 30 min after the other drugs (3 nmol) and were then immediately evaluated. […] ANOVA followed by the Holm–Sidak multiple comparisons test, p < 0.05, 1-β > 0.80.
Focal cerebral ischemia was induced via pMCAO, as described previously. Briefly, mice were anesthetized and a vertical skin incision was made between the left eye and ear under a dissection microscope. After drilling a small hole in the cranium at the level of the distal portion of the middle cerebral artery, the artery was occluded by cauterization. Flow obstruction was visually verified. Animals showing subdural haemorrhages or signs of incorrect surgery were immediately excluded from the study (<5% in each group). The mice were returned to their cages after surgery, kept at room temperature, and allowed food and water ad libitum. Strong lesion reproducibility was observed. […] The investigator performing the pMCAO surgery was blinded to the treatment group. To determine the infarct size 48 h after surgery, animals were euthanized and their brains were removed, after which six 1 mm thick coronal brain slices (Brain Matrix, WPI, UK) were obtained. The sections were stained with 2,3,5-triphenyltetrazolium chloride (1% TTC, Merck-Sigma). Samples were taken from each side of all brain sections with a digital camera (Nikon Coolpix 990, Tokyo, Japan), and the extent of unstained infarct area (expressed in mm^2) was integrated from the total area as an orthogonal projection.

CCI CD1 mice = assay: Chronic sciatic nerve constriction injury (CCI), mechanical allodynia, von Frey test; format: in vivo, mouse
Method: Implication of σ1Rs. […] Upper panel: the withdrawal thresholds of the contralateral and ipsilateral paws were measured before (indicated as 0) and up to 14 days after surgery. […] Middle panel: 0.3 and 3 nmol of ^αN-acetyl β-End 1–31 were administered icv 7 days after surgery, and the nociceptive threshold was evaluated at the indicated postinjection intervals (in minutes). For every time interval studied in min or days, * indicates a significant difference from the group that received saline instead of ^αN-acetyl β-End 1–31; ϕ significant difference from the effect of 3 nmol ^αN-acetyl β-End 1–31. […] All data are presented as the mean ± SD of six mice. ANOVA followed by the Holm–Sidak multiple comparisons test, p < 0.05, 1-β > 0.80. […] Upper panel: wild-type mice were injected icv with saline, ^αN-acetyl β-End 1–31 (1 nmol/mouse) or the combination of the σ1R agonist PPCC (3 nmol/mouse) plus ^αN-acetyl β-End 1–31 20 min before morphine and β-End 1–31. Analgesia was evaluated by the warm water (52 °C) tail-flick test at the interval postinjection corresponding to their peak effect, 30 min. Lower panel: σ1R^−/− mice received 1 nmol ^αN-acetyl β-End 1–31, 20 min before morphine and β-End 1–31 and analgesia was evaluated as described above. Eight mice were used per strain and treatment. * Significant difference with respect to the group treated with morphine or β-End 1–31 alone. ANOVA followed by the Holm–Sidak multiple comparisons test, p < 0.05, 1-β > 0.80.
After the basal mechanical sensitivity of the mice was tested, neuropathic pain was induced by chronic sciatic nerve constriction injury (CCI) surgery under isoflurane/oxygen anesthesia using the procedure described by Bennett and Xie with modifications. Briefly, a 0.5 cm incision was made in the right midthigh, the biceps femoris muscle was separated, and the sciatic nerve was exposed proximal to its trifurcation. Two ligatures (5/0 braided silk suture; Lorca Marin, Murcia, Spain, 70,014) were tied around this nerve approximately 1 mm apart until a short flick of the ipsilateral hind limb was observed. The incision was then closed in layers with a 4–0 Ethicon silk suture. The same procedure was used for sham surgery, except that the sciatic nerve was exposed but not ligated. The tactile pain threshold of both the ipsilateral and contralateral hind paws was then assessed before and on different days post-surgery. The mice were individually placed in a transparent plastic cage with a wire-mesh bottom that allowed full access to the paws. After a habituation period of 20 min, a mechanical stimulus was delivered to the plantar surface from below the floor of the test chamber to measure allodynia using an automatic von Frey apparatus (Ugo Basile #37,450, Comerio, Italy). A steel rod (0.5 mm diameter) was pushed against the hind paw over a 10 s period as the force increased from 0 to 10 g. When the mouse withdrew its hind paw, the mechanical stimulus was automatically stopped, and the force at which withdrawal occurred was recorded. At each time point, three separate threshold measurements were obtained from each hind paw and then averaged.

Compound	effect on the neuroprotection provided by ^αN-acetyl β-End 1–31 ([1]; given with ^αN-acetyl β-End 1–31 (3 nmol icv), wild-type mice)	effect on infarct volume, given alone ([1]; icv 60 min postsurgery (3 nmol), 48 h after pMCAO, wild-type mice)	effect on the antiallodynic action of ^αN-acetyl β-End 1–31 (CCI CD1 mice; 3 nmol icv together with 3 nmol ^αN-acetyl β-End 1–31)	infarct volume ([1]; 3 nmol icv 60 min postsurgery, 48 h after pMCAO, wild-type mice, mean ± SD, 5 to 8 mice, SD)	reduction in the infarct size ([1]; 3 nmol icv 60 min postsurgery, 48 h after pMCAO, wild-type mice, untreated infarct 5.4 ± 1.2% of total brain volume)	protective effect on pMCAO-produced ischemia in σ1R−/− mice ([1]; σ1R−/− mice, 3 nmol icv)	effect on mechanical allodynia, 0.3 nmol (CCI CD1 mice; 0.3 nmol icv 7 days after CCI surgery, von Frey, 6 mice)	effect on mechanical allodynia, 3 nmol (CCI CD1 mice; 3 nmol icv 7 days after CCI surgery, von Frey, 6 mice)	duration of clear protection (CCI CD1 mice; higher dose (3 nmol icv), partial protection for an additional 24 h)	time after icv administration at which the beneficial effect was observed (CCI CD1 mice; icv, 7 days after CCI surgery)
Cl.O=C(OCCN1CCOCC1)C1(c2ccccc2)CCCCC1 [PRE084, 2-(4-morpholinethyl)-1-phenylcyclohexanecarboxylate hydrochloride, reference compound]	prevented the neuroprotection	did not alter the extent of infarct volume	prevented the β-End 1–31 ^αN-acetyl derivative from diminishing the response of CCI mice in the von Frey test	–	–	–	–	–	–	–
^αN-acetyl β-End 1–31: β-End 1–31 acetylated at N terminal Y1, α position	–	–	–	1.2 ± 0.9 % of the total brain volume	~80%	did not exhibit protective effects	significantly reduced mechanical allodynia	practically restored the von Frey response to the levels observed presurgery	24 h	10 to 15 min
